In paper PMC4685510, “A Cell Biologist’s Field Guide to Aurora Kinase Inhibitors” (Frontiers in Oncology, 2015):
Entries after “also recorded” stand apart in the source; their conditions may differ.

Legend:
[1] = test system: pH3(Ser 28) in U2OS cells; experiment: Substrate phosphorylation immunofluorescence assay, pH3(Ser 28), U2OS; type: cell-based, human; conditions: Homo sapiens, 8 h inhibitor treatment, read-out: pHistone H3 (Ser28) IC50
[2] = test system: pLATS2(Ser 83) in U2OS cells; experiment: Substrate phosphorylation immunofluorescence assay, pLATS2(Ser 83), U2OS; type: cell-based, human; conditions: Homo sapiens, 8 h inhibitor treatment, read-out: pLATS2 (Ser83) IC50
Experimental: (§1) We employed the protocol described in Figure 3D to analyze substrate phosphorylation in HeLa cells following treatment with all 10 inhibitors in dose–response. Asynchronous cells were incubated with vehicle (DMSO) or different inhibitor doses for 8 h and then fixed and labeled with a mixture of three antibodies directed against pLATS2(Ser 83), pH3(Ser 28), and MPM2 [which detects mitotic phosphoepitopes; ([86])]. While both the anti-pLATS2(Ser 83) and MPM2 antibodies are mouse monoclonals, they are of different IgG subclasses [IgG2b for anti-pLATS2(Ser 83) and IgG1 for MPM2], and can thus be detected with subclass-specific secondary antibodies (Table S3 in Supplementary Material).
(§2) In control mitotic cells, pLATS2(Ser 83) is concentrated in foci around the spindle poles (Figure 3E; top row – green arrow) and pH3(Ser 28) is on the mitotic chromatin (Figure 3E; top row – red arrow). Selective kinase inhibition should result in loss of one signal but not the other, as illustrated by the example images for specific conditions in Figure 3E (middle and bottom rows). Cells were imaged in 4 channels to visualize pLATS2(Ser 83), pH3(Ser 28), MPM2, and DNA (labeled with Hoechst) and mitotic cells were segmented based on their bright MPM2 labeling (Figure 3E). Intensity and area thresholds were set to select the pLATS2(Ser 83) foci and the pH3(Ser 28)-labeled chromatin in their respective channels in DMSO-treated control cells and the same thresholds were applied for inhibitor-treated cells. The mean fluorescence intensity per pixel was measured to assess the activities of the kinases targeting these two substrate phosphorylation sites.
(§3) Twelve thousand HeLa cells, 10,000 U2OS cells, or 8,000 RPE1 cells were seeded into 96-well glass-bottom Sensoplates (Greiner) 16 h before inhibitor addition. Prior to seeding, the glass-bottom plates were coated with poly-L-lysine (Sigma). […] After 8 h cells were fixed with 4% PFA for 20 min at room temperature. The fixed cells were washed with PBS. For immunostaining, cells were permeabilized and blocked with PBS containing 10% normal donkey serum (Jackson ImmunoResearch) and 0.1% Triton-X100 for 1 h at room temperature. Primary antibodies against phospho-LATS2 (Ser 83), phospho-histone H3(Ser 28), and anti-phospho-MPM2 (see Table S3 in Supplementary Material) were incubated for 1 h at room temperature. […] Cells were then washed twice with PBS containing 0.1% Triton-X100. Image acquisition in four channels was performed using a CV7000 spinning disk confocal system (Yokogawa Electric Corporation) with a 40 × 0.95 NA U-PlanApo objective and 2560 × 2160 pixel sCMOS camera. […] Fifty fields per well were imaged with quadruplicate wells for each condition. Image analysis was done using the CV7000 image analysis software (Yokogawa Electric Corporation). Between 100 and 1,000 mitotic cells per condition were segmented applying object identification parameters to select for bright MPM2 labeling. Using a nuclear identifier protocol, minimum intensity thresholds were set for pLATS2(Ser 83) and the pH3(Ser 28) signals, and the resulting identified objects were eroded, dilated, and filtered for size by user-defined thresholds. For only the MPM2-positive mitotic cells, the mean fluorescence intensity of the identified pLATS2(Ser 83) and pH3(Ser 28) objects was measured, and the average intensity per cell per well was calculated. The same thresholds were applied for all of the inhibitor-treated samples, which were processed, imaged, and analyzed in parallel with control DMSO-treated cells. Data were fit using a four-parameter, variable slope fit in Prism (GraphPad). Primary and secondary antibody dilutions can be found in Table S3 in Supplementary Material.

[3] = test system: pH3(Ser 28) in RPE1 cells; experiment: Substrate phosphorylation immunofluorescence assay, pH3(Ser 28), RPE1; type: cell-based, human; conditions: Homo sapiens, RPE-1; RPE1; 8 h inhibitor treatment; read-out: pHistone H3 (Ser28) IC50
HeLa cells [4] = experiment: G2 duration live imaging assay (GFP-PCNA; H2B-RFP), HeLa; type: cell-based, human; conditions: Homo sapiens, read-out: G2/M (G2 duration) IC50
[5] = test system: pH3(Ser 28) in HeLa cells; experiment: Substrate phosphorylation immunofluorescence assay, pH3(Ser 28), HeLa; type: cell-based, human; conditions: Homo sapiens, 8 h, 8 h inhibitor treatment, read-out: pHistone H3 (Ser28) IC50
U2OS cells [6] = experiment: G2 duration live imaging assay (GFP-PCNA; H2B-RFP), U2OS; type: cell-based; conditions: Homo sapiens, read-out: G2/M (G2 duration) IC50
[7] = test system: pLATS2(Ser 83) in RPE1 cells; experiment: Substrate phosphorylation immunofluorescence assay, pLATS2(Ser 83), RPE1; type: cell-based, human; conditions: Homo sapiens, RPE-1; RPE1; 8 h inhibitor treatment; read-out: pLATS2 (Ser83) IC50
Experimental: as §1, §2, §3

[8] = test system: pLATS2(Ser 83) in HeLa cells; experiment: Substrate phosphorylation immunofluorescence assay, pLATS2(Ser 83), HeLa; type: cell-based, human; conditions: HeLa; for IC50: Homo sapiens, 8 h, read-out: pLATS2 (Ser83) IC50
Experimental: as §1, §2, §3

RPE1 cells [9] = experiment: G2 duration live imaging assay (GFP-PCNA; H2B-RFP), RPE1; type: cell-based; conditions: Homo sapiens, RPE-1; RPE1; read-out: G2/M (G2 duration) IC50
Aurora A = conditions: ref 119; read-out: Aurora A IC50 (Published); cited from earlier work
RPE1 cells [10] = experiment: Cytokinesis assay (live imaging, YFP-α-tubulin; H2B-RFP), RPE1; type: cell-based; conditions: Homo sapiens, RPE-1; RPE1; cytokinesis failure; read-out: Cytokinesis IC50
Aurora A-TPX2 = conditions: ref 121; read-out: Aurora A-TPX2 IC50 (Published); cited from earlier work
U2OS cells [11] = experiment: Cytokinesis assay (live imaging, YFP-α-tubulin; H2B-RFP), U2OS; type: cell-based; conditions: Homo sapiens, cytokinesis failure, read-out: Cytokinesis IC50
HeLa cells [12] = experiment: Cytokinesis assay (live imaging, YFP-α-tubulin; H2B-RFP), HeLa; type: cell-based, human; conditions: Homo sapiens; HeLa; cytokinesis failure; read-out: Cytokinesis IC50

IC50 (U2OS cells [11]) [nM] | pLATS2 (Ser83) IC50 ([8]; 8 h inhibitor treatment) | IC50 (HeLa cells [12]) [nM] | Compound | IC50 [1] [nM] | IC50 [2] [nM] | IC50 [3] [nM] | IC50 (HeLa cells [4]) [nM] | IC50 [5] [nM] | IC50 (U2OS cells [6]) [nM] | IC50 [7] [nM] | Specificity window (pLATS2(Ser 83) versus pH3(Ser 28)) [8] [fold] | IC50 ([8]; 8 h inhibitor treatment) [nM] | IC50 (RPE1 cells [9]) [nM] | IC50 (Aurora A) [nM] | IC50 (RPE1 cells [10]) [nM] | IC50 (Aurora A-TPX2) [nM]
 |  |  | COc1cc(Nc2ncc3c(n2)-c2ccc(Cl)cc2C(c2c(F)cccc2OC)=NC3)ccc1C(=O)O [MLN8237] | 210 | 92 | 130 | 128 | 160 | 157 | 130 | 4 | 37 | 115 |  |  | 
 |  |  | Cc1cc(Nc2cc(N3CCN(C)CC3)nc(Sc3ccc(NC(=O)C4CC4)cc3)n2)[nH]n1 [VX-680] |  |  |  |  | 45 |  |  |  | 150 |  | […] |  | 
613 | NE (3 μM); also recorded: NE@3 μM | 615 | COc1cc2c(Nc3ccc(NC(=O)c4ccccc4)cc3)ncnc2cc1OCCCN1CCOCC1 [ZM447439] |  |  |  |  | 410 |  |  |  |  |  |  | 1320 | 360
